Measurements from US20260250246A1, “PSILOCYBIN ANALOGS, SALTS, COMPOSITIONS, AND METHODS OF USE” (priority 2021, published 2026).
“And” between values parts separate entries of the source, which are not always exact repeats. Equal values may be shown once. Where a name gives a salt, the structure may show the parent alone.

Legend:
[1] = Stability studies in acid solutions (PI salt solutions); type: physicochemical; details: 40° C.
Source text: Ascorbic acid (AsA), acetic acid (AcA), tartaric acid (TA), fumaric acid (FA), citric acid (CA), malic acid (MA), benzenesulfonic acid (BSA), stearic acid (SA), sodium citrate dihydrate, monosodium phosphate hydrate, disodium phosphate were purchased from Sigma Aldrich. Aluminum (III) chloride (AlCl3) and iron (III) chloride (FeCl3) were purchased from Sigma Aldrich. Antioxidants, i.e., ethylenediaminetetraacetic acid (EDTA), ascorbic acid (AsA), L-cysteine (Cys), sodium metabisulfite (NamBiSO3) and propyl gallate (PG) were purchased from Sigma Aldrich. Hydroxypropyl-β-cyclodextrin (CAVASOL® W7 HP, CAVITRON® W7 HP7) and methyl-β-cyclodextrin (CAVASOL® W7 M) were provided by DuPont.
The following chromatographic conditions were used:
Diluent. The diluent used in the below studies was prepared as follows: 100 mL of acetonitrile (ACN) was mixed with 800 mL of water and 100 mL of 1.0 M citric acid and mixed well to prepare 1 L of diluent.
The stability of psilocin in 0.1 M solutions of various acids was tested.
Test solutions: To prepare the test solutions, 0.1 M solutions of AsA, AcA, TA, FA, CA, MA, BSA, and SA were prepared in DI water.

[2] = Stability studies in sodium citrate buffer; type: physicochemical
Method: (§1) Preparation of 0.1 M sodium citrate buffer (pH 6.01): 2.427 g of sodium citrate dihydrate and 0.336 g of citric acid were dissolved in 80 ml of DI water. The pH was adjusted to 6.0 using a 1 M NaOH solution. The final volume was adjusted to 100 ml.

[3] = Long term stability studies with citric acid and sodium citrate buffer; type: physicochemical
Method: The long-term stability (up to 25 days) of psilocin in a citric acid solution (0.1 M, pH 1.60) and a sodium citrate buffer (0.1 M, pH 6.01) at 4° C. and 23° C. was assessed.
as §1
Test solutions: Psilocin (1 mg/ml) was mixed with (i) sodium citrate buffer (0.1 M, pH 6.01) and (ii) citric acid solution (0.1 M, pH 1.60) in 1:1 v/v. The samples were stored at 4° C. and 23° C., and aliquots were sampled at designated timepoints (days 0, 7, 17, and 25).

[4] = Stability studies with antioxidants; details: EDTA, ascorbic acid, L-cysteine, sodium metabisulfite, propyl gallate; 40° C.
[5] = Stability studies in citric acid solution
[6] = Stability studies with cyclodextrin complexes; details: 40° C., with or without metal salts
[7] = Psilocin-d0/psilocin-d10 and psilocybin PK comparative study in rats (oral gavage, intravenous bolus; plasma and brain); details: for oral bioavailability: co-dosing of PI-d0 and PI-d10
[8] = Maturation in 12 different solvents with thermal cycling (XRPD); type: physicochemical; details: thermal cycling room temperature/50° C., 3 days
Method: The resulting slurries were subjected to maturation with thermal cycling between room temperature and 50° C. (4 hours at each condition) for 3 days. Solids were then analysed by XRPD.

[9] = Stability of amorphous form from melt/crash cooling on standing; type: physicochemical; details: amorphous free base
[10] = Anti-solvent precipitation: DMF or DMSO solution added to water; type: physicochemical
Method: The following techniques were tried but were not successful in the preparation of amorphous material: • i) Crash cooling freeze drying. […] Instead, solutions were formed which became dark within 4 hours, signifying degradation

[11] = Psilocin-d10 pharmacokinetics study in dogs following oral gavage and intravenous (bolus) administrations
[12] = Pharmacokinetics of psilocin-d10 and psilocybin in male beagle dog, powder in capsule (PIC) or orally disintegrating tablet (ODT)
[13] = Observation of freeze dried salt; type: physicochemical; details: freeze dried from 1,4-dioxane
[14] = female dog plasma, single intravenous (bolus) 0.20 mg/kg, Mean, N=3
[15] = female dog plasma, single intravenous (bolus) 0.20 mg/kg, Median, N=3
[16] = female dog plasma, single intravenous (bolus) 0.20 mg/kg, individual animals 60F, 61F, 723F, listed as Psilocin-d10, 0.2 mg/kg
[17] = female dog plasma, single oral (gavage) 1.00 mg/kg, Median, N=3
[18] = female dog plasma, single oral (gavage) 1.00 mg/kg, individual animals 60F, 61F, 723F, listed as Psilocin-d10, 1 mg/kg
[19] = ODT, psilocin-d10 dosed 5 mg (nominal 0.5 mg/kg), analyte psilocin-d10, male beagle dog plasma, Mean
[20] = PIC, psilocin-d10 dosed 5 mg (nominal 0.5 mg/kg), analyte psilocin-d10, male beagle dog plasma, Mean

Structure (SMILES): CN(C)CCc1c[nH]c2cccc(O)c12 [Compound I-7, 3-(2-(dimethylamino)ethyl)-1H-indol-4-ol]
- solution stability (% psilocin remaining) ([1]; 0.1 M acid solutions, with or without metal salts, up to 24): excellent stability
- solution stability (% psilocin remaining) ([1]; without acid, within 24 hours): nearly all psilocin being degraded
- solution stability (% psilocin remaining) ([1]; without acid, with Fe3+ and Al3+ metal ions): significant psilocin degradation
- solution stability (% psilocin remaining) ([2]; 0.1 M sodium citrate buffer, 4° C. and room temperature): greatly stabilized
- degradation of psilocin ([2]; 0.1 M sodium citrate buffer, 40° C.): 10-15%
- effect of metal salts (Fe3+ and Al3+) on psilocin ([2]; in 0.1 M citrate buffer): no detrimental effects
- solution stability (% psilocin remaining) ([2]; non-citrate buffered, with Fe3+ and Al3+ metal ions): significant psilocin degradation
- solution stability (% psilocin remaining) ([2]; without sodium citrate buffer, 4, 23, 40° C., by 18 hour time point): nearly all psilocin being degraded
- long-term solution stability ([3]; citric acid 0.1 M, pH 1.60, 23° C. and 4° C., 25 days): only minimal degradation
- time psilocin remained stable ([3]; sodium citrate buffer pH 6.01, cold storage 4° C.): up to 17 days
- long-term solution stability ([3]; sodium citrate buffer pH 6.01, room temperature): degradation of psilocin began within a week
- stability against metal salts with antioxidants [4]: none of the antioxidants tested were able to provide stability
- psilocin stabilization at 24 hour time point ([5]; small quantities of citric acid, 40° C., 24 hour): 30%
- solution stability (% psilocin remaining) ([5]; small quantities of citric acid, pH 3.2, 4° C. and 23° C.): greatly enhanced the stability
- solution stability (% psilocin remaining) ([5]; without citric acid, 4, 23 and 40° C., by 18 hour time point): nearly all psilocin being degraded
- solution stability (% psilocin remaining) ([5]; without citric acid, with Fe3+ and Al3+ metal ions): significant psilocin degradation
- stability with cyclodextrins [6]: did not impart stability
- oral bioavailability ([7]; rats): 7.52%

Structure (SMILES): [2H]C([2H])([2H])N(C([2H])([2H])[2H])C([2H])([2H])C([2H])([2H])c1c[nH]c2cccc(O)c12 [Compound I-3j, Benzoate Salt of 3-(2-(bis(methyl-d3)amino)ethyl-1,1,2,2-d4)-1H-indol-4-ol]
- crystalline form by XRPD after maturation in 12 solvents [8]: retained their initial crystalline form

Structure (SMILES): CN(C)CCc1c[nH]c2cccc(O)c12 [Compound I-7c, Hemi-Fumarate Salt of 3-(2-(dimethylamino)ethyl)-1H-indol-4-ol]
- crystalline form by XRPD after maturation in 12 solvents [8]: complex polymorphism

Structure (SMILES): [2H]C([2H])([2H])N(C([2H])([2H])[2H])C([2H])([2H])C([2H])([2H])c1c[nH]c2cccc(O)c12 [Compound I-3, 3-(2-(bis(methyl-d3)amino)ethyl-1,1,2,2-d4)-1H-indol-4-ol]
- stability of amorphous form [9]: not stable for prolonged periods
- time until solutions became dark, signifying degradation [10]: ≤ 4 h
- time of last detectable plasma level ([11]; dogs, oral administration): 9 h
- Cmax [11, 14]: 45.8 ng/mL
- t1/2 [11, 14]: 1.37 h
- AUC0-inf [11, 15]: 95.8 ng·h/mL
- AUC0-t [11, 15]: 80.7 ng·h/mL
- CL [11, 15]: 34.83 mL/min/kg
- Cmax [11, 15]: 45.9 ng/mL
- DN Cmax [11, 15]: 230 (ng/mL)/(mg/kg)
- Vss [11, 15]: 3.96 L/kg
- AUC0-inf [11, 16]: 95.8 ng·h/mL
- AUC0-t [11, 16]: 80.7 ng·h/mL
- CL [11, 16]: 34.83 mL/min/kg
- Cmax [11, 16]: 45.9 ng/mL and 43.9 ng/mL
- DN AUC0-inf [11, 16]: 500 (h*ng/mL)/(mg/kg)
- DN Cmax [11, 16]: 230 (ng/mL)/(mg/kg) and 220 (ng/mL)/(mg/kg)
- Vss [11, 16]: 3.96 L/kg
- AUC0-inf [11, 17]: 414 ng·h/mL
- AUC0-t [11, 17]: 399 ng·h/mL
- t1/2 [11, 17]: 1.80 h
- AUC0-inf [11, 18]: 426 ng·h/mL and 414 ng·h/mL
- AUC0-t [11, 18]: 404 ng·h/mL and 399 ng·h/mL
- Cmax [11, 18]: 126 ng/mL
- t1/2 [11, 18]: 1.80 h and 1.82 h and 1.69 h
- oral bioavailability ([7]; rats): 12.1%
- AUCINF_obs [12, 19]: 213 ng·h/mL
- AUClast [12, 19]: 199 ng·h/mL
- Cl_F_obs [12, 19]: 40.33 mL/min/kg
- Cmax [12, 19]: 67.2 ng/mL
- Tmax [12, 19]: 0.542 h
- Vz_F_obs [12, 19]: 6.9 L/kg
- AUClast [12, 20]: 181 ng·h/mL
- Cl_F_obs [12, 20]: 43.5 mL/min/kg
- Cmax [12, 20]: 60 ng/mL
- T½ [12, 20]: 2.01 h
- Vz_F_obs [12, 20]: 7.6 L/kg
- psilocin-d10 exposure compared to psilocin exposure after administration of psilocybin ([12]; dogs, independent of formulation): twice as high

Structure (SMILES): CN(C)CCc1c[nH]c2cccc(O)c12 [Compound I-7b, Tartrate Salt of 3-(2-(dimethylamino)ethyl)-1H-indol-4-ol]
- crystalline form by XRPD after maturation in 12 solvents [8]: retained their initial crystalline form

Structure (SMILES): CN(C)CCc1c[nH]c2cccc(O)c12 [Compound I-7e, Citrate Salt of 3-(2-(dimethylamino)ethyl)-1H-indol-4-ol]
- hygroscopicity of isolated solid [13]: hygroscopic

Structure (SMILES): CN(C)CCc1c[nH]c2cccc(OP(=O)(O)O)c12 [psilocybin]
- Tmax ([7]; rat plasma, Group 3: psilocybin intravenous (bolus) 2.8 mg/kg, label = analyte, IAD = immediately after dosing): IAD
- brain concentrations compared to plasma ([7]; rats, after IV dosing): brain concentrations are low

Structure (SMILES): CN(C)CCc1c[nH]c2cccc(O)c12 [Compound I-7a, Benzenesulfonate Salt of 3-(2-(dimethylamino)ethyl)-1H-indol-4-ol]
- crystalline form by XRPD after maturation in 12 solvents [8]: retained their initial crystalline form

Structure (SMILES): CN(C)CCc1c[nH]c2cccc(O)c12 [Compound I-7j, Benzoate Salt of 3-(2-(dimethylamino)ethyl)-1H-indol-4-ol]
- crystalline form by XRPD after maturation in 12 solvents [8]: retained their initial crystalline form
